This is an account of results in US20100008912A1, “COMBINATION DRUG” (TAKEDA PHARMACEUTICAL COMPANY LIMITED, priority 2006, published 2010).

Where a name gives a salt, the structure may show the parent alone.

One assay has as its system N87 (gastric cancer). Kind of assay: Cell growth determination test of combined use, Combination Index, N87. Type of assay: cell-based, human. To be noted: combined use with compound A. The protocol:
(§1) The cell density of the cell suspension was measured by cell counter Sysmex CDA500, and the cell density was adjusted to 4×10^4 cell/mL using the aforementioned medium, which was dispensed to each well of a 96 well multi-well culture plate (Nunc) by 0.15 mL and cultured overnight at 37° C., 5% CO2. […] After culturing at 37° C., 5% CO2 for 5 days, the cells of each well were fixed, stained and subjected to colorimetry. The effect of the combined use was determined by the method of Chou T C, Talalay P Adv.
(§2) The effect of combined use was determined by the method of Chou T C, Talalay P Adv.

The subject of the next assay is OE19 (esophageal cancer). Description: Cell growth determination test of combined use, Combination Index, OE19. To be noted: combined use with compound A. Type of assay: cell-based, human. The method, then:
as §1, §2

In assay [1] the test system is Human breast cancer cell line BT-474. Kind of assay: Cell growth test of combined use, Combination Index by the method of Chou and Talalay, BT-474. The format is cell-based. Conditions: for Combination Index at the time of inhibition of cell growth by 50%: combined use with compound A, BT-474. The protocol:
as §1, §2

For assay [2], the system named is Human breast cancer cell line BT-474 (HER2 high expressing). Kind of assay: Tumor growth of BT-474 transplanted subcutaneously in nude mouse, combined use. The format is in vivo. To be noted: compound A 10 mg/mL, 10 mL/kg orally twice a day, 14 days, 10 mL/kg intraperitoneally twice a week. The protocol:
(§3) Human breast cancer cell line BT-474 (ATCC (American Type Culture Collection) catalog No. HTB-20, Lasfargues E Y, In Vitro 15:723-729 (1979)), which is a passage cultured HER2 high expressing cell, was treated with trypsin and suspended in RPMI-1640 medium (GibcoInvitrogen) containing 10% bovine fetus serum (GibcoInvitrogen).
as §3

Assay [3] deals with HER2 high expressing clinical gastric cancer cell line (4-1ST). Description: Tumor growth of 4-1ST tumor pieces transplanted subcutaneously in nude mouse, combined use. Type of assay: in vivo.
Excerpt: A tumor mass of 4-1ST (obtained from Central Institute for Experimental Animals), which was HER2 high expressing clinical gastric cancer cell line transplanted and passaged in vivo in nude mouse, was recovered from nude mouse, aseptically cut into 2 to 3 mm square pieces. The above-mentioned tumor piece was fixed on a trocar transplantation tool and transplanted subcutaneously into the abdomen of nude mouse. As a nude mouse for transplantation, BALB/cAJc l-nu/nu, female, 5-week-old mice were purchased from CLEA Japan, Inc. After 1 week of acclimation on receipt of the mice, the tumor piece was transplanted subcutaneously into the abdomen of 6-week-old mouse. The tumor volume was measured over time from 2 weeks after the transplantation and the mouse with a tumor volume of from 200 to 300 mm^3 was used for the test. Compound A was adjusted to a concentration of 10 mg/mL with 0.5% aqueous methylcellulose solution, and orally administered to mouse at a liquid amount of the above-mentioned compound A suspension of 10 mL/kg body weight. Compound A was administered twice a day in the morning and in the afternoon (administration interval was 7 hr or more) for 14 consecutive days. As for trastuzumab (Herceptin (trademark) (Genentech, Inc.) catalog No. NDC 50242-134-68), undiluted solution (21 mg/mL) was diluted to 1 mg/mL with saline, and intraperitoneally administered at a liquid amount of 10 mL/kg body weight. Trastuzumab was administered twice a week, totaling 4 times. The tumor volume was measured every 2 or 3 days, and the final tumor volume was measured on the next day of the completion of the 14 day administration and the effect of combined use was determined (FIG. 3). […] As for cetuximab (Erbitux (trademark)), undiluted solution (2 mg/mL) was intraperitoneally administered at a liquid amount of 10 mL/kg body weight. […] The tumor volume was measured every 2 or 3 days, and the final tumor volume was measured on the next day of the completion of the 14 day administration and the effect of combined use was determined (FIG. 4).
The test system of assay [4] is Human breast cancer cell line BT-474. Kind of assay: Cell growth inhibitory assay, SRB staining method, BT-474. The format is cell-based. To be noted: in vitro; serially diluted; 5 days; BT-474 (FIG. 7). The method, then:
(§4) Human breast cancer cell line BT-474 was treated with trypsin and suspended in RPMI 1640 medium (Invitrogen) containing 10% bovine fetus serum (Invitrogen). BT-474 cell was plated on a 96 well plate at 6000 cells/100 μL/well. The next day, fulvestrant alone, compound A alone or a mixture of fulvestrant and compound A was serially diluted and added. After addition of the compound, the mixture was stood in a CO2 incubator for 5 days. 50 μL of 25% glutaraldehyde solution (Wako) was added to 200 μL of medium and the mixture was left standing at room temperature for 15 min. The plate was washed with PBS once, 200 μL of PBS was added, 25 μL of 50% trichloroacetic acid was added, and the mixture was left standing at 4° C. for 1 hr or longer. The plate was washed 5 times with tap water, redundant water was removed by slamming the plate against Kimtowel. 50 μL of 0.4% (w/v) Sulforhodamine B (SRB, Sigma)-containing 1% (v/v) acetic acid solution was added to each well and, 15 min later, the plate was washed 3 times with 1% acetic acid solution (v/v). The plate was thoroughly dried, 10 mM Tris solution was added, and the mixture was stirred well with a plate shaker, and the absorbance at 550 nm was measured (Bio-Rad, Benchmark Plus). In calculation, a control free of a drug was 100% (FIG. 7).

Assay [5] deals with Human breast cancer cell line MCF-7. Description: Cell growth inhibitory assay, SRB staining method, MCF-7. The format is cell-based. Conditions: in vitro; serially diluted; 4 days; MCF-7 (FIG. 8). The protocol:
Human breast cancer cell line MCF-7 cell was plated on a 96 well plate at 3000 cells/100 μL/well. The next day, fulvestrant alone, compound A alone or a mixture of fulvestrant and compound A was serially diluted and added.
as §4, with “After” for “Human breast cancer cell line BT-474 was treated with trypsin and suspended in RPMI 1640 medium (Invitrogen) containing 10% bovine fetus serum (Invitrogen). BT-474 cell was plated on a 96 well plate at 6000 cells/100 μL/well. The next day, fulvestrant alone, compound A alone or a mixture of fulvestrant and compound A was serially diluted and added. After”, “for 4” for “for 5”, “(FIG. 8).” for “(FIG. 7).”
Background: The SRB assay estimates cell density from bound dye.

Assay [6] relates to HER family genes (EGFR, HER2, HER3, HER4) in MCF-7 cell. Description: HER family gene expression (TaqMan PCR) in MCF-7. Type of assay: cell-based, human. The method, then: MCF-7 cell was plated on a 6 well plate at 8.6×10^4 cells/well. The next day, the cells were treated with compound A (1 μM), fulvestrant (1 μM) or compound A (1 μM)+fulvestrant (1 μM). After 120 hr, total RNA was extracted using an RNeasy mini kit (Qiagen). 1 μg of total RNA was subjected to a Reverse Transcriptase reaction using a high capacity cDNA archive kit (P/N 4322171, Applied Biosystems) to give cDNA. The obtained cDNA was diluted 50-fold with Nuclease Free water (Promega), and 5 μL thereof was used for PCR reaction. 2×TaqMan Universal PCR Master Mix (12.5 μL) and 20×Probe & Primer (TaqMan Gene Expression Assays, 1.25 μL) and Nuclease Free water (6.25 μL) were blended. PCR reaction and analysis were performed using GeneAmp 7700 (Applied Biosystems). The reaction conditions were 50° C.×2 min, 95° C.×10 min, followed by 95° C.×15 sec, 60° C.×1 min, which cycle was repeated 40 times. For data analysis, calculation was made with GAPDH as an internal control and according to ? Ct method
On the technique in general: In qPCR the cycle at which signal appears reflects the starting amount.

Assay [7] concerns HER2 high expressing cancer cells (BT-474, N87, Calu3, OE19). Description: Cell growth determination test of combined use, summary over the four cell lines. The format is cell-based, human. To be noted: in vitro; summary of Table 1. The method, then: (§5) Human breast cancer cell line BT-474 (ATCC (American Type Culture Collection) catalog No. HTB-20, Lasfargues E Y, In Vitro 15:723-729 (1979)), which is a passage cultured HER2 high expressing cell, was treated with trypsin and suspended in RPMI-1640 medium (GibcoInvitrogen) containing 10% bovine fetus serum (GibcoInvitrogen). The cell density of the cell suspension was measured by cell counter Sysmex CDA500, and the cell density was adjusted to 4×10^4 cell/mL using the aforementioned medium, which was dispensed to each well of a 96 well multi-well culture plate (Nunc) by 0.15 mL and cultured overnight at 37° C., 5% CO2. Thereto was added a medium containing compound A 40-200 nmol/L at a given concentration, a medium containing trastuzumab (Herceptin (trademark) (Genentech, Inc.) catalog No. NDC 50242-134-68, 79-400 ng/mL) at a given concentration, or a medium containing compound A 40-200 nmol/L and trastuzumab 79-400 ng/mL at a given concentration. […] The effect of the combined use was determined by the method of Chou T C, Talalay P Adv. […]
(§6) HER2 high expressing human cancer cell lines, BT-474 (breast cancer), N87 (gastric cancer), Calu3 (lung cancer) and OE19 (esophageal cancer), were purchased from ATCC and used for the experiments. […] The effect of combined use was determined by the method of Chou T C, Talalay P Adv.

A further assay has as its system Calu3 (lung cancer). Description: Cell growth determination test of combined use, Combination Index, Calu3. Type of assay: cell-based, human. Conditions: combined use with compound A; Calu-3. The method, then: as §5, §6

Turning to `O=c1[nH]cc(F)c(=O)[nH]1` [Compound 5FU, 5FU], the results for the “Combination Index at the time of inhibition of cell growth by 50%” value with N87 (gastric cancer) and with OE19 (esophageal cancer) were 0.95 and 1.43, respectively.

As to `CC(C)(O)CC(=O)NCCn1ccc2ncnc(Nc3ccc(Oc4cccc(C(F)(F)F)c4)c(Cl)c3)c21` [Compound A, N-{2-[4-({3-chloro-4-[3-(trifluoromethyl)phenoxy]phenyl}amino)-5H-pyrrolo[3,2-d]pyrimidin-5-yl]ethyl}-3-hydroxy-3-methylbutanamide], the “Effect of combined use of compound A and trastuzumab on cell growth” value in [1] (in vitro, compound A 40-200 nmol/L + trastuzumab 79-400 ng/mL, 5 days, Combination Index vs Fraction affected (FIG. 1)) was “synergistic effect”. Besides, in [2] (paclitaxel 3 mg/mL, 4 times (FIG. 6)), the “Effect of combined use of compound A and paclitaxel on tumor volume, compared to each agent alone” value is “stronger action”. The “Effect of combined use of compound A and trastuzumab on tumor volume” value was “synergistic effect” in assay [2] (trastuzumab 1 mg/mL, 4 times, two-way analysis of variance (FIG. 2)) and “synergistic effect” in [3] (compound A 10 mg/mL, 10 mL/kg orally twice a day, 14 days, trastuzumab 1 mg/mL, 10 mL/kg intraperitoneally twice a week, 4 times (FIG. 3)). The “Effect of combined use of compound A and erlotinib on tumor volume” value in assay [3] (compound A 10 mg/mL and erlotinib 2 mg/mL, each 10 mL/kg orally twice a day, 14 days (FIG. 5)) was “synergistic effect”. The “Effect of combined use of compound A and cetuximab on tumor volume” value in [3] (compound A 10 mg/mL, 10 mL/kg orally twice a day, 14 days, cetuximab 2 mg/mL, 10 mL/kg intraperitoneally twice a week, 4 times (FIG. 4)) was “synergistic effect”. For the same compound, the “Cell growth inhibition by combined use of compound A and fulvestrant, compared to each alone” value in [4] and in assay [5] was “stronger cell growth inhibitory action” in each case. In assay [6] (compound A 1 μM alone or + fulvestrant 1 μM, 120 hr (FIG. 9)), the “Action on HER signal” value is recorded as “HER signal blocking action”. In addition, the “Effect of combined use of compound A and chemotherapeutic agents on cell growth” value in assay [7] is recorded as “additive effect”.

Take `CC(=O)O[C@@]12CO[C@@H]1C[C@H](O)[C@@]1(C)C(=O)[C@H](O)C3=C(C)[C@@H](OC(=O)[C@H](O)[C@@H](NC(=O)OC(C)(C)C)c4ccccc4)C[C@@](O)([C@@H](OC(=O)c4ccccc4)[C@H]21)C3(C)C` [docetaxel]: the “Combination Index at the time of inhibition of cell growth by 50%” value in assay [1] worked out at 1.10; in the assay on N87 (gastric cancer) it was 0.57; in the assay on OE19 (esophageal cancer), 0.94.

For `COc1cccc2c1C(=O)c1c(O)c3c(c(O)c1C2=O)C[C@@](O)(C(=O)CO)C[C@@H]3O[C@H]1C[C@H](N)[C@H](O)[C@H](C)O1` [doxorubicin hydrochloride], the “Combination Index at the time of inhibition of cell growth by 50%” value in [1] amounted to 1.65; in the assay on Calu3 (lung cancer) it was 1.39; with OE19 (esophageal cancer), 0.96.

On to `C[C@]12CC[C@@H]3c4ccc(O)cc4C[C@@H](CCCCCCCCC[S+]([O-])CCCC(F)(F)C(F)(F)F)[C@H]3[C@@H]1CC[C@@H]2O` (stereo partly drawn) [fulvestrant], for which the “HER family gene expression (EGFR, HER2, HER3, HER4), control group = 1” value in [6] (1 μM, 120 hr, GAPDH as internal control (FIG. 9)) is given as “increase”.

As to `CCc1c2c(nc3ccc(OC(=O)N4CCC(N5CCCCC5)CC4)cc13)-c1cc3c(c(=O)n1C2)COC(=O)[C@]3(O)CC` [irinotecan hydrochloride], the “Combination Index at the time of inhibition of cell growth by 50%” value in the assay on N87 (gastric cancer) stood at 1.02; in the assay on OE19 (esophageal cancer), 0.83.
